We go through one compound from patent US20150126597A1, “GENISTEIN CANCER TREATMENT REGIMEN MAXIMIZING CANCER RADIATION THERAPY BENEFITS” (Humanetics Corporation, priority 2013, published 2015).

The structures appear in SMILES notation.

In data set [1] the test system is uterus, GI tract, esophagus, skin, tumor, lungs. Description: Example 1: post mortem tissue weights and histopathology (safety). In kind it is in vivo, mouse. The following applies: Example 1, 10 weeks dosing 5 d/wk. As for the experimental part:
At the time of euthanasia organs were harvested and wet tissue weights were measured. In addition to the tissues the weight of the remaining tumor was determined so that the tumor weight can be correlated with the calculated tumor volumes.
The various tissues were fixed in formalin, then processed and embedded in paraffin. Hematoxylin and eosin (H&E) staining was done on 5 micron sections from each of the tissues.
Following euthanasia organ weights were collected for the lungs, uterus, and GI tract. In addition, the tumor was resected and weighed. […]
The examined tissues included the lungs, GI tract (esophagus), uterus, tumor, and the skin near the A549 tumor xenograft. […] All tissues were analyzed microscopically following H&E staining. For these analyses 5 tumors, 5 lung samples, and 5 skin samples were analyzed from each experimental group. In addition, three uterus samples and three esophagus samples from each experimental group were analyzed. All tissue samples were prepared, sectioned, and stained with H&E. Tissues were analyzed for gross morphology and H&E sections were evaluated for inflammatory cells, capillary distension, and congestion. A veterinary pathologist scored the severity and distribution of anomalies observed. […]

The conditions of data set [2]: Genistein provided as a nano suspension in accordance with US 2012/0164190 and 2012/0121654; cited from earlier work.
For data set [3] the following is noted: cited from earlier work.

Regarding `O=c1c(-c2ccc(O)cc2)coc2cc(O)cc(O)c12` [Genistein, 5,7-dihydroxy-3-(4-hydroxyphenyl)-chromen-4-one], the Uterus wet weight entry in data set [1] was “did not dramatically affect the wet uterine weights”. For the same compound, the Oral bioavailability entry in data set [2] is listed as “significantly improved oral bioavailability”. Also, the Solubility in water entry in data set [3] is reported as “virtually insoluble in water”.
